Article PMC12298007 (Pharmaceuticals, 2025)
Non-standard residues stand in square brackets, D forms with d. Residues, ends and D or L forms follow the SMILES beside them. *: point of attachment. X1 = O=C(O)CC[C@H](NC(=O)N[C@@H](CCCCNC(=O)CCCCCCC(=O)*)C(=O)O)C(=O)O; d2Nal = N[C@H](Cc1ccc2ccccc2c1)C(=O)O; Mercaptoacetyl = O=C(CS)*

Molecular target: T1, human PSMA (CHO-K1-PSMA cells) (Homo sapiens, UniProt Q04609)
T1 construct: host or cells: CHO-K1 (lentiviral transduction, clone 5)
Test: Saturation binding assay on CHO-K1-PSMA cells
Settings: 2 h at 4 °C
Experimental: Saturation binding experiments were carried out with increasing concentrations of the radiolabeled peptides for 2 h at 4 °C. […] Cells were processed as previously published. […] The next day, the culture medium was replaced with 0.8 mL Ham's F 12 Nutrient Mix (1% FBS), and the cells were kept in the fridge for 30 min before the addition of the radioligand. […] The saturation assay was performed at 4 °C to avoid internalization. […] Total incubation volume per well: 1 mL. […] The obtained fractions and standard aliquots were measured in a γ-counter. […] Human GRPR reverse: [NT] Human β-ACTIN forward: [NT] Human β-ACTIN reverse: [NT] 3.3.4 Western blot Total protein was isolated from cell lines as previously described. PierceTM Coomassie Plus (Bradford) Protein Assay Kit (Thermo Scientific, Cat.Nr. 23236) was used for measuring protein concentrations and 30 μg (for PSMA) or 40 μg (for GRPR) protein per sample was used for SDS-PAGE and Western blot as previously described. PSMA (CST, D4S1F) Rabbit, GRPR (Alomone labs, Cat.Nr. ABR-002) Rabbit, α-Tubulin (Proteintech, Cat.Nr. 66031-1-Ig) Mouse and β-Actin (Proteintech, Cat.Nr. 66009-1-Ig) Mouse antibodies were utilized for detection of protein expression. Secondary antibodies used, included goat anti -rabbit IgG HRP conjugate (JD111036047) and rabbit anti -mouse IgG HRP conjugate (JD315035008). […] (Figure 6B, Table 1, main manuscript). […] 21

T1 sequence (Q04609 whole entry): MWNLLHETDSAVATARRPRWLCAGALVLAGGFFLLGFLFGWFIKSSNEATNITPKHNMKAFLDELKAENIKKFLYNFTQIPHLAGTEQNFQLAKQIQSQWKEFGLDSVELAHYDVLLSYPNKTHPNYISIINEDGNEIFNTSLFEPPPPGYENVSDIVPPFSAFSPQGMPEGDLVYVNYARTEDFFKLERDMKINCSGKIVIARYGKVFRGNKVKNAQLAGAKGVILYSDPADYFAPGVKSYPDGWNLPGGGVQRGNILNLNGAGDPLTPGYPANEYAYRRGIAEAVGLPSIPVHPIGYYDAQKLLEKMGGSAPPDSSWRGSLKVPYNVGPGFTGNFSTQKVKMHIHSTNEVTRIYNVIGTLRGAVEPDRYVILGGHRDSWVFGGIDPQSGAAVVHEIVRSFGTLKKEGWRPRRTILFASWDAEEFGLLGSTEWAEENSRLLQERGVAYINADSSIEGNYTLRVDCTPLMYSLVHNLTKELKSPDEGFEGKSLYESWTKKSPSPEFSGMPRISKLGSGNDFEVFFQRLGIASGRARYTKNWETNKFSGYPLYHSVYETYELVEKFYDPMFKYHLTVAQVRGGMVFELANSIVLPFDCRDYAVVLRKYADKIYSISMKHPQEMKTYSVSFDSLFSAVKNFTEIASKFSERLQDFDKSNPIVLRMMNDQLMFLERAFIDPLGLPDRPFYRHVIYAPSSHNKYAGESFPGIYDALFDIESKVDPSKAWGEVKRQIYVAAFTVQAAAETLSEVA

Kd: 3.84 ± 0.44 nM
SMILES: O=C(O)CC[C@H](NC(=O)N[C@@H](CCCCNC(=O)CCCCCCC(=O)NCCCC[C@@H](NC(=O)[C@@H](Cc1ccc2ccccc2c1)NC(=O)[C@@H](Cc1ccc(O)cc1)NC(=O)[C@@H](CO)NC(=O)[C@@H](CO)NC(=O)[C@@H](CO)NC(=O)CS)C(=O)O)C(=O)O)C(=O)O [[^99mTc]Tc-PSMA-I&S, metal not drawn] (Mercaptoacetyl-[dS][dS][dS][dY][d2Nal][dK](X1)-OH)
